We go through 25 molecules from PMC7936271, “Discovery and characterization of bromodomain 2–specific inhibitors of BRDT” (Proceedings of the National Academy of Sciences of the …, 2021).

Structures are written as SMILES. A value given as a limit tells only on which side of the number the result lay.

For assay [1], the target named is BRDT-BD2.
Assay [2] addresses BRDT-BD2 (Homo sapiens, UniProt Q58F21). Description: AlphaScreen competition assay with biotinylated JQ1, BRDT-BD2. The format is binding. Also noted: BRDT-BD2, NP_001717.3 amino acid 269− 380; made in house; host or cells: E. coli NiCo21 (DE3). Conditions: AlphaScreen, result in words. Background: Alpha assays give light when donor and acceptor beads are brought close together.

As a reminder, the IC50 is the concentration at which inhibition is half-maximal. High values mean weaker potency in that assay, low ones greater potency in that assay. In the case of `COc1ccc(NC(=O)c2ccc3c(c2)c(-c2cc4ccccc4n2C)nn3C)c(C)c1`, the IC50 on BRDT-BD2 [1] was 183 nM.

On BRDT-BD2 [1], `COc1ccc(NC(=O)c2ccc3c(c2)c(-c2cc4ccccc4n2C)nn3C)cc1C` showed an IC50 of 111 nM.

Consider `COc1ccc(NC(=O)c2ccc3c(c2)c(-c2cc4ccccc4n2C)nn3C)cc1Cl`, for which the IC50 against BRDT-BD2 [1] is 164 nM.

On BRDT-BD2 [1], `COc1ccc(NC(=O)c2ccc3c(c2)c(-c2cc4ccccc4n2C)nn3C)cc1` gave an IC50 of 121 nM.

On to `CNC(=O)c1ccc(C(=O)Nc2cc(NC(=O)c3ccc4c(c3)c(-c3ccccc3C)nn4C)ccc2OC)cc1`, for which the IC50 against BRDT-BD1 amounted to 6300 nM; on BRDT-BD2 [1] it was 61 nM.

Regarding `CNC(=O)c1ccc(C(=O)Nc2cc(NC(=O)c3ccc4c(c3)c(-c3ccc(N)nc3C)nn4C)ccc2C)cc1` [Compound 14], the “BRDT-BD2 activity / affinity” value at BRDT-BD2 [2] was “lower affinity than compound 10”. The IC50 on BRDT-BD2 [1] came out at 94 nM.

On BRDT-BD2 [1], `COc1ccc(NC(=O)c2ccc3c(c2)c(-c2cc4ccccc4n2C)nn3C)cc1OC` had an IC50 of 101 nM.

Consider `COc1ccc(NC(=O)c2ccc3c(c2)c(-c2cc4ccccc4n2C)nn3C)cc1F`, for which the IC50 on BRDT-BD2 [1] was determined as 119 nM.

`COc1ccc(N(C)C(=O)c2ccc3c(c2)c(-c2ccc(N)cc2C)nn3C)cc1` [Compound 26]: the “BRDT-BD2 activity / affinity” value on BRDT-BD2 [2] is “loss of potency”. Also, the results for the IC50 against BRDT-BD1 and on BRDT-BD2 [1] were greater than 10000 nM and greater than 1000 nM, respectively.

For the molecule `CNC(=O)c1ccc(C(=O)Nc2cc(NC(=O)c3ccc4c(c3)c(-c3ccc(N)cc3)nn4C)ccc2OC)cc1`, the IC50 at BRDT-BD1 was greater than 10000 nM; on BRDT-BD2 [1], 15 nM.

As to `CNC(=O)c1ccc(C(=O)Nc2cc(NC(=O)c3ccc4c(c3)c(-c3cnc(N)nc3)nn4C)ccc2C)cc1` [Compound 13], at BRDT-BD2 [2], the “BRDT-BD2 activity / affinity” value was “lower affinity than compound 10”. Moreover, the IC50 on BRDT-BD1 is greater than 10000 nM; at BRDT-BD2 [1] it was 139 nM.

`CNC(=O)c1ccc(C(=O)Nc2cc(NC(=O)c3ccc4c(c3)c(-c3ccc(N)cc3C)nn4C)ccc2OC)cc1`: the results for the IC50 on BRDT-BD1 and against BRDT-BD2 [1] were greater than 10000 nM and 12 nM, respectively.

`CC(=O)Nc1cc(NC(=O)c2ccc3c(c2)c(-c2ccc(N)nc2)nn3C(C)C)ccc1C`: the IC50 was greater than 10000 nM against BRDT-BD1 and 253 nM at BRDT-BD2 [1].

In the case of `COc1ccc(NC(=O)c2ccc3c(c2)c(-c2ccc(N)cc2C)nn3C)cc1` [Compound 24], on BRDT-BD2 [2], the “BRDT-BD2 activity / affinity” value is listed as “dramatic loss of activity”. The IC50 at BRDT-BD2 [1] came out at 54 nM.

Consider `CNC(=O)c1ccc(C(=O)Nc2cc(NC(=O)c3ccc4c(c3)c(-c3cc5ccccc5n3C)nn4C)ccc2OC)cc1` [Compound 3], for which the “BRDT-BD2 activity / affinity” value on BRDT-BD2 [2] is “low nanomolar affinity”. This molecule also yielded an IC50 at BRDT-BD2 [1] of 22 nM.

For the molecule `CCn1nc(-c2ccc(N)nc2)c2cc(C(=O)Nc3ccc(C)c(NC(C)=O)c3)ccc21`, the IC50 at BRDT-BD1 was greater than 10000 nM; on BRDT-BD2 [1] it was 79 nM.

For the molecule `CC(=O)Nc1cc(NC(=O)c2ccc3c(c2)c(-c2cnc(N)cc2C)nn3C)ccc1C`, at BRDT-BD2 [1], the IC50 was determined as 126 nM.

`COc1ccc(NC(=O)c2ccc3c(c2)c(-c2cc4ccccc4n2C)nn3C)c(F)c1` showed an IC50 on BRDT-BD2 [1] of 203 nM.

As to `CNC(=O)c1ccc(C(=O)Nc2cc(NC(=O)c3ccc4c(c3)c(-c3ccc(OC)cc3)nn4C)ccc2C)cc1`, the IC50 against BRDT-BD1 is greater than 10000 nM; against BRDT-BD2 [1], 521 nM.

As for `COc1ccc(NC(=O)c2ccc3c(c2)c(-c2ccc(N)cc2C)nn3C)cc1NC(=O)c1ccccc1`, the IC50 on BRDT-BD2 [1] was 35 nM.

On to `CNC(=O)c1ccc(C(=O)Nc2cc(NC(=O)c3ccc4c(c3)c(-c3ccncc3)nn4C)ccc2C)cc1` [Compound 12], for which the “BRDT-BD2 activity / affinity” value at BRDT-BD2 [2] is listed as “weaker-binding”. For the same molecule, the IC50 against BRDT-BD2 [1] was 978 nM.

Molecule `CNC(=O)c1ccc(C(=O)Nc2cc(NC(=O)c3ccc4c(c3)c(-c3ccc(C)cc3C)nn4C)ccc2OC)cc1` came in with an IC50 against BRDT-BD2 [1] of 26 nM.

In turn, `COc1ccc(NC(=O)c2ccc3c(c2)c(-c2cc4ccccc4n2C)nn3C)c(OC)c1` registered an IC50 against BRDT-BD2 [1] of 926 nM.

Consider `COc1ccc(NC(=O)c2ccc3c(c2)c(-c2cc4ccccc4n2C)nn3C)c(Cl)c1`, for which the IC50 at BRDT-BD2 [1] was greater than 1250 nM.

Take `Cc1cc(N)ccc1-c1nn(C)c2ccc(C(=O)Nc3ccccc3)cc12`: the IC50 is greater than 10000 nM against BRDT-BD1 and 90 nM against BRDT-BD2 [1].
